Experimental data reported in patent publication US11384067B2, “Pyrazole n-linked carbamoyl cyclohexyl acids as LPA antagonists” (BRISTOL-MYERS SQUIBB COMPANY, priority 2017, dated 2022).

How the values were obtained:
[1] = test system: IPF patients; settings: 26-week clinical trial; cited from earlier work
[2] = biological target: T1, human LPA1 (Homo sapiens, UniProt Q92633); assay: LPA1 functional antagonist assay (LPA-induced calcium flux); format: cell-based; settings: CHO cells overexpressing human LPA1, 10 nM LPA, read-out: hLPA1 IC50
T1 construct: expressed in transfected cells; host or cells: Chinese hamster ovary (CHO) cells
Procedure: The effectiveness of compounds of the present invention as LPA1 inhibitors can be determined in an LPA1 functional antagonist assay as follows:
The cells were then equilibrated to room temperature for 30 minutes before the assay. […] IC50 values were determined by fitting data to a 4-parameter logistic equation (GraphPad Prism, San Diego Calif.).

[3] = test system: nerve-injured mice; settings: pretreatment; cited from earlier work
[4] = test system: human foetal lung fibroblasts; settings: cited from earlier work
[5] = test system: UUO mice; settings: compared with LPA1 (-/-) mice; cited from earlier work
[6] = test system: mouse epithelial renal cell line, MCT; settings: co-treatment with LPA, MCT cells; cited from earlier work
[7] = test system: pancreatic cancer cell lines; settings: cited from earlier work

T1 sequence (Q92633 whole entry): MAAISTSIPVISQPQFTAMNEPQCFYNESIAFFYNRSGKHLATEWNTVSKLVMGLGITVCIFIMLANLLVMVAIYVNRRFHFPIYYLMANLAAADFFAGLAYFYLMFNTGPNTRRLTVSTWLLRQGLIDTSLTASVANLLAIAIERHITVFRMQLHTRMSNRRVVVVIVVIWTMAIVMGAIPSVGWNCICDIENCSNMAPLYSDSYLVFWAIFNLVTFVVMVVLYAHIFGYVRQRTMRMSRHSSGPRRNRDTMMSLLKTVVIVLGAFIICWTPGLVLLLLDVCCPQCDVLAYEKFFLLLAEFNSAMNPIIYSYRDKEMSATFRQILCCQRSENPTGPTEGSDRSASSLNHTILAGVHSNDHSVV

Row | IC50 [2] [nM] | Compound | further results
1 | – | Cc1noc(-c2ccc(-c3ccc(C4(C(=O)O)CC4)cc3)cc2)c1NC(=O)O[C@H](C)c1ccccc1 [BMS-986020] | rate of FVC (forced vital capacity) decline [1]: significantly reduce
2 | 13 | Cc1nc(-c2cnn(C)c2CNC(=O)OCc2ccccc2)ccc1O[C@H]1CCC[C@H](C(=O)O)C1 [Example 33, (1S,3S)-3-((6-(5-((((benzyloxy)carbonyl)amino)methyl)-1-methyl-1H-pyrazol-4-yl)-2-methylpyridin-3-yl)oxy)cyclohexane-1-carboxylic acid] | –
3 | 10 | Cc1nc(-c2cnn(C)c2CNC(=O)OCC2CCC2)ccc1O[C@H]1CCC[C@H](C(=O)O)C1 [Example 35, (1S,3S)-3-((6-(5-((((cyclobutyl-methoxy)carbonyl)amino)methyl)-1-methyl-1H-pyrazol-4-yl)-2-methyl-pyridin-3-yl)oxy)cyclohexane-carboxylic acid] | –
4 | 16 | Cc1nc(-c2cnn(C)c2CNC(=O)OCc2ccccc2)ncc1O[C@H]1CCC[C@H](C(=O)O)C1 [Example 37, (1S,3S)-3-((2-(5-((((benzyloxy)carbonyl)amino)methyl)-1-methyl-1H-pyrazol-4-yl)-4-methylpyrimidin-5-yl)oxy)cyclohexane-1-carboxylic Acid] | –
5 | 105 | Cc1nc(-c2cnn(C)c2NC(=O)O[C@H](C)c2ccccc2)ncc1O[C@H]1CCC[C@H](C(=O)O)C1 [Example 40, (1S,3S)-3-((4-methyl-2-(1-methyl-5-((((R)-1-phenylethoxy)carbonyl)amino)-1H-pyrazol-4-yl)pyrimidin-5-yl)oxy)cyclohexane-1-carboxylic acid] | –
6 | 80 | Cc1nc(-c2cnn(C)c2NC(=O)O[C@H](C)C2CC2)ncc1O[C@H]1CCC[C@H](C(=O)O)C1 [Example 41, (1S,3S)-3-((2-(5-((((R)-1-cyclopropyl-ethoxy)carbonyl)amino)-1-methyl-1H-pyrazol-4-yl)-4-methylpyrimidin-5-yl)oxy)cyclohexane-1-carboxylic acid] | –
7 | 564 | Cc1nc(-c2cnn(C)c2NC(=O)OCC(C)C)ncc1O[C@H]1CCC[C@H](C(=O)O)C1 [Example 43] | –
8 | 995 | Cc1nc(-c2cnn(C)c2NC(=O)OCC2CC2)ncc1O[C@H]1CCC[C@H](C(=O)O)C1 [Example 44, (1S,3S)-3-((2-(5-(((cyclopropyl-methoxy)carbonyl)amino)-1-methyl-1H-pyrazol-4-yl)-4-methylpyrimidin-5-yl)oxy)cyclohexane-1-carboxylic acid] | –
9 | – | C[C@@H](N)[C@H]1CC[C@H](C(=O)Nc2ccncc2)CC1 [Example Y-27632] | allodynia and hyperalgesia [3]: completely abolished
10 | – | Cc1noc(-c2ccc(CSCCC(=O)O)cc2)c1NC(=O)OC(C)c1ccccc1Cl (centres unmarked) [Ki16425] | chemotaxis of human foetal lung fibroblasts induced by BAL from IPF patients [4]: blocked; fibroblast chemotactic activity in bronchoalveolar lavage samples of IPF subjects [4]: inhibited; development of renal fibrosis in UUO mice [5]: closely resembled the profile of LPA1 (−/−) mice; LPA induction of CTGF expression [6]: almost completely suppressed; in vitro migration in response to LPA and ascites from pancreatic cancer patients [7]: effectively blocked; LPA-induced and ascites-induced invasion activity ([7]; highly peritoneal metastatic pancreatic cancer cell line): blocked

Row | Compound | IC50 [2] [nM] | further results
11 | CC[C@H](C)COC(=O)NCc1c(-c2ccc(O[C@H]3CCC[C@H](C(=O)O)C3)c(C)n2)cnn1C [Example 34, (1S,3S)-3-((2-methyl-6-(1-methyl-5-(((((S)-2-methylbutoxy)carbonyl)amino)methyl)-1H-pyrazol-4-yl)pyridin-3-yl)oxy)cyclohexane-1-carboxylic acid] | 20 | –
12 | CC[C@H](C)COC(=O)NCc1c(-c2ncc(O[C@H]3CCC[C@H](C(=O)O)C3)c(C)n2)cnn1C [Example 36, (1S,3S)-3-((4-methyl-2-(I-methyl-5-(((((S)-2-methylbutoxy)carbonyl)amino)methyl)-1H-pyrazol-4-yl)pyrimidin-5-yl)oxy)cyclohexane-1-carboxylic Acid] | 31 | –
13 | Cc1nc(-c2cnn(C)c2CNC(=O)OCC(C)C)ncc1O[C@H]1CCC[C@H](C(=O)O)C1 [Example 38, (1S,3S)-3-((2-(5-(((isobutoxy-carbonyl)amino)methyl)-1-methyl-1H-pyrazol-4-yl)-4-methylpyrimidin-5-yl)oxy)cyclohexane-1-carboxylic acid] | 218 | –
14 | Cc1nc(-c2cnn(C)c2NC(=O)OC(C)(C)C)ncc1O[C@H]1CCC[C@H](C(=O)O)C1 [Example 39, (1S,3S)-3-((2-(5-((tert-butoxycarbonyl)amino)-1-methyl-1H-pyrazol-4-yl)-4-methylpyrimidin-5-yl)oxy)cyclohexane-1-carboxylic Acid] | 1520 | –
15 | CCCCOC(=O)Nc1c(-c2ncc(O[C@H]3CCC[C@H](C(=O)O)C3)c(C)n2)cnn1C [Example 42, (1S,3S)-3-((2-(5-((butoxycarbonyl)amino)-1-methyl-1H-pyrazol-4-yl)-4-methylpyrimidin-5-yl)oxy)cyclohexane-1-carboxylic acid] | 239 | –
